# Data: patent publication US9884063B2, “Amido-substituted azole compounds” (Bayer Pharma Aktiengesellschaft, priority 2014, dated 2018)
# Biological target: T1, TNKS1 (Homo sapiens, UniProt O95271)
# T1 sequence (O95271 1-1327): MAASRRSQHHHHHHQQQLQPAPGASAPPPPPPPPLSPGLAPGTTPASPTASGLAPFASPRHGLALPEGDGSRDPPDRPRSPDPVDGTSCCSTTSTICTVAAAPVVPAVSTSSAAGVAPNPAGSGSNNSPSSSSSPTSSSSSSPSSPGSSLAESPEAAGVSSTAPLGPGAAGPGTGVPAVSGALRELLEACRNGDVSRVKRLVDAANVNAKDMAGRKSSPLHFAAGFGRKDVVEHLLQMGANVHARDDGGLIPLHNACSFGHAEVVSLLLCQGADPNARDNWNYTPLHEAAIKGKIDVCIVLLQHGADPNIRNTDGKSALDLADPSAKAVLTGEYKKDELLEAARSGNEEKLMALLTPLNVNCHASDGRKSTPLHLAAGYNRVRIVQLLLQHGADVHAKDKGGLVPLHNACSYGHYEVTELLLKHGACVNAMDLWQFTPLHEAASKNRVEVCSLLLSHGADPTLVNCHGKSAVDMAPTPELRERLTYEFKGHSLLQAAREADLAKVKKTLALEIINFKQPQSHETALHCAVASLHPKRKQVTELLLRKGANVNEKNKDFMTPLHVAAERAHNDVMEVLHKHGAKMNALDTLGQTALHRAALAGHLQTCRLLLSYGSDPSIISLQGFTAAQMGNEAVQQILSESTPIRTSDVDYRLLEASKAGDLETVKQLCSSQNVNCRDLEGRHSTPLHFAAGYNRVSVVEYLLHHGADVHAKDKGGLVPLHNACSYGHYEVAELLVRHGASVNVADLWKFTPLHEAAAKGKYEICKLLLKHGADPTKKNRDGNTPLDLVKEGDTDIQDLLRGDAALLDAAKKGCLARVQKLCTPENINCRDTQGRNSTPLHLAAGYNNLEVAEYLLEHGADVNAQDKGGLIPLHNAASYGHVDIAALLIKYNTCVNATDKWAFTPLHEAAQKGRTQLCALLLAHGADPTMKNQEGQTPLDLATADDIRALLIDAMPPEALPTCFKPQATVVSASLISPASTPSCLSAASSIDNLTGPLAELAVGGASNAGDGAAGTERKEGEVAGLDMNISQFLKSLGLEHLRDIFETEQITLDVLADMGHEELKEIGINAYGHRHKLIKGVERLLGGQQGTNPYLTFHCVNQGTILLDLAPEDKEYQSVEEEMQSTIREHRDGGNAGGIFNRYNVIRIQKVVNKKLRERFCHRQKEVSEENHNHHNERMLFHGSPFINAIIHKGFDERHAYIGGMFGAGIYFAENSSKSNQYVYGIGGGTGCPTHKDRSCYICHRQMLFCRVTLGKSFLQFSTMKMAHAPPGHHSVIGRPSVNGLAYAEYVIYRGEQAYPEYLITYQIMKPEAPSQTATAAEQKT
# Test: TNKS1 Assay 1 (TNKS1 Histone Ribosylation Assay Kit, biotin-labeled NAD+)
# Type: biochemical
# Conditions: chemiluminescent readout, 384 well, Table 1
# Procedure: The potency of the compounds according to the invention was assessed by applying an in vitro inhibition assay. The TNKS1 catalyzed NAD^+-dependent ribosylation of a suitable protein substrate was detected using a commercially available biotin/streptavidin binding based assay format [TNKS1 Histone Ribosylation Assay Kit (Biotin-labeled NAD+), Catalog #80579; BPS Bioscience, San Diego, USA]. Here, the incorporation of a biotin-labeled NAD+ during the TNKS1 catalyzed ribosylation reaction was detected with a streptavidin-HRP coupled chemi-luminescent readout. The intensity of the readout signal is proportional to the incorporated NAD^+. Inhibition of TNKS1 leads to a decreased incorporation of NAD^+ and consequently to a lower readout signal intensity. The concentration of a test compound which inhibits the enzyme activity by 50% (corresponds to half of the normed readout signal intensity) is reported as IC50.
# The assay was conducted in a 384 well MTP format according to the manufacturer's protocol [bpsbioscience.com/poly-adp-ribose-polymerase/assay-kit/tnks1-histone-ribosylation-assay-kit-biotin-labeled-nad-80579 referencing: Brown, J. A., Marala, R. B. J. Pharmacol. Toxicol. Methods 2002 47:137-41] and using a BMG Pherastar MTP reader [BMG-Labtech, Offenburg, Germany].
smiles,measurement,value
"CNC(=O)c1[nH]cnc1C(=O)Nc1ccc(NC(=O)c2cc(Cl)sc2Cl)cc1 [Example 213, N^4-(4-{[(2,5-dichloro-3-thienyl)carbonyl]amino}phenyl)-N^5-methyl-1H-imidazole-4,5-dicarboxamide]",IC50,> 100 µM
